# Source: PubChem BioAssay AID179 (DTP/NCI, 2004)
# Active and inactive are the calls of the source.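 The calls were made as follows: active = compounds giving half or more protection of infected cells from virus-caused growth loss, again on retest; inactive = the rest.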
# System: CEM cells HIV-1 protection, formazan growth assay
# Test: NCI AIDS Antiviral Assay
# Settings: for IC50: measured here: growth of uninfected CEM cells
# How it was run: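 Five concentrations of each compound were applied to infected and uninfected human CEM cells. Protection from HIV-1 was judged from growth measured with a soluble formazan assay.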
SMILES,EC50 [µM],IC50 [µM],outcome
O=C(Nc1cccc(NC(=O)C(=O)C2CCC3=C(Sc4ccccc4N3)C2=O)n1)C(=O)C1CCC2=C(Sc3ccccc3N2)C1=O (stereo not given),> 75.9,63.1,
NNC(=S)N1CCN(C(=S)NN)CC1,> 200,15.1,
S=P(NC1CCCCC1)(NC1CCCCC1)NC1CCCCC1,> 200,> 200,
Nc1ccccc1/C=C1/Sc2cc[nH]c2C1=O,> 63.1,> 63.1,
Cc1cccc(-c2cccc(COCc3cccc(-c4cccc(CO)n4)n3)n2)n1,> 100,43.7,
Nc1nncc2[nH]cnc12,> 200,10,
O=C1C=C(N2CCCC2)C=C(N2CCCC2)C1,> 155,81.3,
COC(=O)Cc1ccc2c(c1)Sc1ccc(CC(=O)OC)cc1N2C,> 200,4.47,
C=C(C)C(=O)O[C@H]1C/C(CO)=C/CCC(=C)C(OC(C)=O)[C@H]2OC(=O)C(=C)[C@H]12 (stereo not given in full),> 200,1.05,
COc1ccc(C2c3cc4c(cc3OC(NNC(N)=O)C2C)OCO4)cc1 (stereo not given),> 200,3.89,
CCN(CC)/[N+]([O-])=N/OCC(C)O (stereo not given),> 8130,> 8130,
C[CH2][Sn]([CH2]C)([O]C(=O)c1ccc(F)cc1)[O]C(=O)c1ccc(F)cc1,> 110,3.63,
O=C1C=C2C3c4c(cc(O)cc4C4c5c(O)cc6c(c5[C@@H]5C(c7ccc(O)cc7)C1C(=O)[C@@]25[C@@H]4c1ccc(O)cc1)[C@@H](c1cc(O)cc(O)c1)[C@H](c1ccc(O)cc1)O6)O[C@H]3c1ccc(O)cc1 (stereo not given in full),> 15.8,10.7,
CC1(C)CC(=O)C(/C=N/C(=S)Nc2ccc(S(N)(=O)=O)cc2)=C(O)C1,> 200,> 200,
O=S(=O)(SC(Cl)(Cl)Cl)c1cccc(S(=O)(=O)c2cccc(S(=O)(=O)SC(Cl)(Cl)Cl)c2)c1,> 200,> 200,
N#C/C(=C\c1cccc(C#N)c1)C(=O)O,> 50.1,> 50.1,

SMILES,EC50 [µM],IC50 [µM],outcome
O=c1c(-c2ccccc2)nc2ccccc2n1CC1CCCN2CCCC[C@H]12 (stereo not given in full),> 200,39.8,
O=C1CSC(c2ccc([N+](=O)[O-])cc2)N1c1ccc(-n2c(-c3ccccc3)nc3ccccc3c2=O)cc1 (stereo not given),> 200,129,
C[C@]12CCC3[C@@H](C[C@H]4OC(=O)[C@@]35CCC(=O)C=C45)C1CCC2=O (stereo not given in full),,,inactive
C1=CNc2ccccc2N=C1,> 200,> 200,
CC(C)C1=CC23CCC4C(C)(C(=O)O)CCCC4(C)C2CC1C1C(=O)N(CCCCCCN2C(=O)C4C5CC6C7(C)CCCC(C)(C(=O)O)C7CCC6(C=C5C(C)C)C4C2=O)C(=O)C13 (stereo not given),> 269,7.41,
Cc1ccc(C)c(N=Nc2c(S(=O)(=O)O)cc3cc(NC(=O)Nc4ccc5c(O)c(N=Nc6ccc7cc(S(=O)(=O)O)ccc7c6)c(S(=O)(=O)O)cc5c4)ccc3c2O)c1,16.2,> 100,
NC(=S)N/N=C/c1cc2c3c(c1)CCCN3CCC2,> 200,> 200,
CN(NC(=O)c1ccco1)C1=NCCCCN1,> 200,> 200,
COc1ccccc1/C=C1\C(=O)N(C(=O)c2ccc(NC(C)=O)cc2)N=C1C,> 19.1,> 19.1,
OCC1OC(n2cnc3cncnc32)C(O)C1O (stereo not given),,,inactive
O=C(CCc1cc(-c2ccccc2)nc(=S)[nH]1)Nc1ccccc1[N+](=O)[O-],> 661,> 661,
COc1cc2c(cc1OC)C1CC(=O)C3=C(CCCC3)N1CC2 (stereo not given),> 200,91.2,
CC(=O)C1(N=Nc2ccc(S(=O)(=O)Nc3ccccn3)cc2)CCOC1=O (stereo not given),> 200,> 200,
CCC12OC(=O)C34CC(C(=O)N(CCc5c3[nH]c3ccccc53)C41)C2I (stereo not given),,,inactive
Cc1ccc(NC(=O)NC(=O)c2ccc([N+](=O)[O-])cc2[N+](=O)[O-])cc1Oc1ncc(Cl)cn1,,,inactive
CC(=O)C(=Cc1ccc(C#N)cc1)C(C)=O,> 170,26.9,
